Results as given in patent US4301177A, “(3-Methyl-2-butenyl)propanedioic acid mono (1,2-diphenylhydrazide) and salts thereof” (Istituto de Angeli S.p.A., priority 1979, dated 1981).
Where a name gives a salt, the structure may show the parent alone.

Experiments:
[1] = tested on: mice; experiment: Analgesic activity, hot plate test in mice (Table III); format: in vivo, male Swiss mice
Description: (§1) In the present study the test compounds were administered perorally by means of a stomach tube as an aqueous suspension in 5% acacia gum at a constant volume of 10 ml/kg to male Swiss mice and male Sprague-Dawley rats. Control rats and mice were given a corresponding volume of the aqueous suspension medium. The results were statistically evaluated by Dunnett's test (C. V. Dunnett.: J.A. Stat. Ass., 40, 1096, 1955).
The analgesic activity was evaluated in mice by the hot plate test according to Janssen and Jageneau (J.Pharm.Pharmac., 9, 381, 1957).
The plate temperature was kept constant at 55° C.; the reaction time was determined before and 30, 60, 90 and 120 minutes after oral administration of the test compound. Average values after administration of the test compound were compared to those obtained before treatment.

[2] = tested on: rats; experiment: Analgesic-anti-inflammatory activity, Randall and Selitto, brewer's yeast inflamed paw in rats (Table IV); format: in vivo, male Sprague-Dawley rats
Description: as §1
4. Analgesic-anti-inflammatory activity
The analgesic-anti-inflammatory activity was evaluated in rats by the method of Randall and Selitto (Arch. Int. Pharmacodyn., 111, 409, 1957), using an analgesimeter to measure the minimum load that must be applied to a rat's hind paw to elicit a painful stimulus.
Both the controls and the experimental rats were injected into the right hind paw with 0.1 ml of 20% brewer's yeast in sterile saline immediately before the administration of the test compound.
The volume of the inflamed right hind paw was measured 1, 2 and 4 hours after the administration of the test compound.
The analgesic-anti-inflammatory activity was evaluated using an "analgesic index" expressed as a ratio between the sum of the average weights (grams) necessary to provoke a painful stimulus at different times in treated and control animals.

[3] = tested on: rats; experiment: Ulcerogenic effect, gastric lesions in rats (Table VIII); format: in vivo, male Sprague-Dawley rats; details: single dose; for % animals with gastric lesions: 16 h
Description: as §1
The ulcerogenic effect was determined in rats by the method of Niemegeers et al. (Arzneimittel-Forschung 25, 1537, 1975). A single oral dose was administered to groups of 15 rats fasted for 9 hours before treatment and kept fasting throughout the whole experimental period. The animals were sacrificed 16 hours after treatment; the severity of lesions was scored according to an arbitrary scale ranging from + to ++++. For each group of rats, an ulcerogenic index was calculated according to Pauls et al., (Gastroenterology 8, 774, 1947).

[4] = tested on: rats; experiment: Effect on normal temperature of rats (Table VI); format: in vivo, male Sprague-Dawley rats
Description: as §1
6. Effect on normal temperature of rats
The rectal temperature was measured at 30-minute intervals before and after administration of the test compound, that is, at -1.5, -1, -0.5, 0.5, 1, 1.5 and 2 hours, using groups of 10 rats each for each dosage level.
(§2) Average values of the temperatures obtained in the treated rats were compared with those of control rats.

[5] = tested on: rats; experiment: Antipyretic activity, fever induced by brewer's yeast in rats (Table V); format: in vivo, male Sprague-Dawley rats
Description: as §1
The antipyretic activity was investigated in rats by the method of Niemegeers et al. (see Arzneim.Forsch. 25, 1519, 1975). The rectal temperature was measured immediately before and 4 hours after the subcutaneous injection of 1 ml/100 g body weight of a 15% brewer's yeast suspension in 1% acacia gum.
The test compound was administered orally to groups of 5 different rats per dose 4 hours after the yeast injection. The rectal temperature was measured 0.5, 1, 1.5, 2, 2.5, 3 and 19 hours after treatment.
as §2

[6] = tested on: rats; experiment: Effect on arthritis induced in rats by Freund's adjuvant (Table II); format: in vivo, male Sprague-Dawley rats; details: day 20

## CCCCC(C(=O)O)C(=O)N(Nc1ccccc1)c1ccccc1 (centres unmarked) [B, Calcium salt of butylpropanedioic acid mono(1,2-diphenylhydrazide), reference compound]
[1]; 50 mg/kg oral, 0 (before administration)
  Reaction time: 14.00 ± 3.80 s
[1]; 50 mg/kg oral, 30 min
  Reaction time: 16.50 ± 3.60 s
[1]; 100 mg/kg oral, 0 (before administration)
  Reaction time: 14.30 ± 2.67 s
[1]; 100 mg/kg oral, 90 min
  Reaction time: 17.10 ± 4.48 s
[1]; 100 mg/kg oral, 120 min
  Reaction time: 16.10 ± 2.56 s
[1]; 200 mg/kg oral, 0 (before administration)
  Reaction time: 12.90 ± 2.92 s
[2]; 40 mg/kg oral, 1 h
  Mean of the weights eliciting painful stimulus: 145.0 grams
[2]; 40 mg/kg oral, 2 h
  Mean of the weights eliciting painful stimulus: 108.8 grams
[2]; 40 mg/kg oral, 4 h
  Mean of the weights eliciting painful stimulus: 105.0 grams
[2]; 80 mg/kg oral, 1 h
  Mean of the weights eliciting painful stimulus: 140 grams
[2]; 80 mg/kg oral, 2 h
  Mean of the weights eliciting painful stimulus: 128.8 grams
[2]; 80 mg/kg oral, 4 h
  Mean of the weights eliciting painful stimulus: 110.0 grams
[2]; 160 mg/kg oral, 1 h
  Mean of the weights eliciting painful stimulus: 142.8 grams
[2]; 160 mg/kg oral, 2 h
  Mean of the weights eliciting painful stimulus: 161.2 grams
[2]; 160 mg/kg oral, 4 h
  Mean of the weights eliciting painful stimulus: 140.0 grams
[3]; 40 mg/kg oral
  Body weight, mean ± standard deviation: 194.67 ± 7.43 grams
  % animals with gastric lesions: 0%
[3]; 80 mg/kg oral
  Body weight, mean ± standard deviation: 190.67 ± 8.84 grams
  % animals with gastric lesions: 0%
[3]; 160 mg/kg oral
  Body weight, mean ± standard deviation: 198.00 ± 11.46 grams
  % animals with gastric lesions: 6.66%
[3]; 320 mg/kg oral
  Body weight, mean ± standard deviation: 186.67 ± 7.24 grams
  % animals with gastric lesions: 64.28%
[4]; 40 mg/kg oral, 0.5 h
  Rectal temperature (normal rats): 36.02 °C
[4]; 40 mg/kg oral, 1 h
  Rectal temperature (normal rats): 36.13 °C
[4]; 40 mg/kg oral, 1.5 h
  Rectal temperature (normal rats): 36.10 °C
[4]; 40 mg/kg oral, 2 h
  Rectal temperature (normal rats): 36.20 °C
[4]; 40 mg/kg oral, -0.5 h (before administration)
  Rectal temperature (normal rats): 36.33 °C
[4]; 40 mg/kg oral, -1 h (before administration)
  Rectal temperature (normal rats): 36.62 °C
[4]; 40 mg/kg oral, -1.5 h (before administration)
  Rectal temperature (normal rats): 37.15 °C
[4]; 80 mg/kg oral, 0.5 h
  Rectal temperature (normal rats): 36.14 °C
[4]; 80 mg/kg oral, 1 h
  Rectal temperature (normal rats): 36.27 °C
[4]; 80 mg/kg oral, 1.5 h
  Rectal temperature (normal rats): 36.31 °C
[4]; 80 mg/kg oral, 2 h
  Rectal temperature (normal rats): 36.47 °C
[4]; 80 mg/kg oral, -0.5 h (before administration)
  Rectal temperature (normal rats): 36.34 °C
[4]; 80 mg/kg oral, -1 h (before administration)
  Rectal temperature (normal rats): 36.51 °C
[4]; 80 mg/kg oral, -1.5 h (before administration)
  Rectal temperature (normal rats): 36.69 °C
[4]; 160 mg/kg oral, 0.5 h
  Rectal temperature (normal rats): 35.62 °C
[4]; 160 mg/kg oral, 1 h
  Rectal temperature (normal rats): 35.70 °C
[4]; 160 mg/kg oral, 1.5 h
  Rectal temperature (normal rats): 35.92 °C
[4]; 160 mg/kg oral, 2 h
  Rectal temperature (normal rats): 36.24 °C
[4]; 160 mg/kg oral, -0.5 h (before administration)
  Rectal temperature (normal rats): 36.00 °C
[4]; 160 mg/kg oral, -1 h (before administration)
  Rectal temperature (normal rats): 36.52 °C
[4]; 160 mg/kg oral, -1.5 h (before administration)
  Rectal temperature (normal rats): 36.50 °C
[5]; 40 mg/kg oral, 0 h (4 h after yeast, before treatment)
  Rectal temperature: 38.08 °C
[5]; 40 mg/kg oral, 0.5 h
  Rectal temperature: 38.05 °C
[5]; 40 mg/kg oral, 1 h
  Rectal temperature: 38.20 °C
[5]; 40 mg/kg oral, 1.5 h
  Rectal temperature: 38.09 °C
[5]; 40 mg/kg oral, 2 h
  Rectal temperature: 38.17 °C
[5]; 40 mg/kg oral, 2.5 h
  Rectal temperature: 38.45 °C
[5]; 40 mg/kg oral, 3 h
  Rectal temperature: 38.01 °C
[5]; 40 mg/kg oral, 19 h
  Rectal temperature: 37.28 °C
[5]; 40 mg/kg oral, -4 h (before yeast)
  Rectal temperature: 36.74 °C
[5]; 80 mg/kg oral, 0 h (4 h after yeast, before treatment)
  Rectal temperature: 38.02 °C
[5]; 80 mg/kg oral, 0.5 h
  Rectal temperature: 37.10 °C
[5]; 80 mg/kg oral, 1 h
  Rectal temperature: 37.38 °C
[5]; 80 mg/kg oral, 1.5 h
  Rectal temperature: 37.48 °C
[5]; 80 mg/kg oral, 2 h
  Rectal temperature: 37.65 °C
[5]; 80 mg/kg oral, 2.5 h
  Rectal temperature: 37.96 °C
[5]; 80 mg/kg oral, 3 h
  Rectal temperature: 37.80 °C
[5]; 80 mg/kg oral, 19 h
  Rectal temperature: 37.44 °C
[5]; 80 mg/kg oral, -4 h (before yeast)
  Rectal temperature: 36.96 °C
[5]; 160 mg/kg oral, 0 h (4 h after yeast, before treatment)
  Rectal temperature: 38.52 °C
[5]; 160 mg/kg oral, 0.5 h
  Rectal temperature: 37.89 °C
[5]; 160 mg/kg oral, 1 h
  Rectal temperature: 37.81 °C
[5]; 160 mg/kg oral, 1.5 h
  Rectal temperature: 37.90 °C
[5]; 160 mg/kg oral, 2 h
  Rectal temperature: 37.34 °C
[5]; 160 mg/kg oral, 2.5 h
  Rectal temperature: 37.50 °C
[5]; 160 mg/kg oral, 3 h
  Rectal temperature: 37.41 °C
[5]; 160 mg/kg oral, 19 h
  Rectal temperature: 36.75 °C
[5]; 160 mg/kg oral, -4 h (before yeast)
  Rectal temperature: 36.06 °C
[6]; 40 mg/kg oral
  % Inhibition: 30%
[6]; 80 mg/kg oral
  % Inhibition: 32%
[6]; 160 mg/kg oral
  % Inhibition: 41.6%
